Marks after values point to notes of the source that are not given here.
Key:
platelet aggregation = experiment: Platelet aggregation in rabbits, single intravenous administration; type: in vivo, rabbit
Description: (§1) 1. Grouping and administration: 48 Rabbits were randomly divided into 6 groups, 8 rabbits per group. 1) Sham operation group (NS): Intravenous injection of the same volume of physiological saline; 2) positive control bivalirudin group (6 mg/kg); 3) positive control enoxaparin group (200 U/kg); 4) Low dose group of polypeptide 2 (3.0 mg/kg); 5) Medium dose group of polypeptide 2 (6.0 mg/kg); 6) High dose group of polypeptide 2 (12.0 mg/kg). Polypeptide 2 was administered by single intravenous administration. According to the body weight in kilograms of the rabbits, the sample was dissolved in 2 mL of physiological saline for single bolus injection. The sham operation group was administered with the same volume of physiological saline.
3.1 Platelet aggregation rate: 2.7 ml of blood was taken from the femoral vein, rapidly injected into a centrifuge tube containing 0.3 ml of 3.8% sodium citrate solution, and fully mixed well. The resulted blood samples were centrifuged at 810 rpm (100 g) for 8 min to obtain PRP, which was taken out and centrifuged at 3500 rpm (1863 g) for 8 min to obtain PPP, which was used to determine platelet aggregation.
Blood samples were taken at a point before administration (0 min), and at points of administration for 5 min and 15 min, respectively, to determine the platelet aggregation rate, which was used to calculate the inhibitory rate of platelet aggregation with a calculation equation as follows: […]

whole blood coagulation = experiment: ACT in rabbits, single intravenous administration; type: in vivo, rabbit
Description: as §1
3.3 Determination of ACT: At 0 min before administration and at points of administration for 5 min and 15 min, the whole blood was taken, to which kaolin was added, and placed in a water bath at 37° C. to record the whole blood coagulation time.

[1] = tested on: blood coagulation function; experiment: PT in rabbits, single intravenous administration; type: in vivo, rabbit
Description: as §1
(§2) 3.2 Determination of blood coagulation function: Blood samples were taken and the blood function (PT, TT, APTT) was determined at 0 min before administration, at points of 5 min and 15 min after administration, using a platelet-aggregation coagulation factor analyzer. Blood samples were centrifuged at 3510 rpm for 8 min to obtain platelet poor plasma (PPP). Reagent reconstruction and preservation were performed according to the operation requirements of the kit. Immediately after each blood sample was placed into a test cup and then added with PT. TT and APTT reagents, the test was started. After the test was completed, results were recorded.

[2] = tested on: blood coagulation function; experiment: APTT in rabbits, single intravenous administration; type: in vivo, rabbit
Description: as §1, §2

[3] = tested on: FeCl3-induced common carotid arterial thrombosis; experiment: FeCl3-induced common carotid arterial thrombosis in rats; type: in vivo, rat
Description: 160 Rats were randomly divided into groups, 5 to 10 rats per group.
According to the body weight in kilograms of the rats, the first dose of a drug was dissolved in 2 mL of physiological saline for single bolus injection. The maintaining dose of drug was dissolved in 9 ml of physiological saline, and placed in a double-channel micro-injection pump, which was dripped off within 90 minutes at a dripping speed of 0.1 ml/min. The sham operation group was administered with the same volume of physiological saline.
The rats were fasted with free access to water overnight before the experiment.
After administration at a load dosage maintenance for 30 minutes, a filter paper with a 3 mm diameter and immersed with 35% FeCl3 solution was applied below the common carotid artery, below which a small piece of a plastic film (2.5 cm×2.0 cm) was placed to protect surrounding tissues. The body temperature was detected with a temperature probe in the distal end of the artery, and the time required from the beginning of stimulation to the point when the temperature decreased by 2.5 degrees was examined as the vascular occlusion time.
The time from the point when FeCl3 was placed to the point when the temperature of the artery indicated a decrease of 2.5° C. was the vascular occlusion time, which reflected the state of thrombus formation.

[4] = single iv 6.0 mg/kg, Administration for 5 min
[5] = single iv 6.0 mg/kg, Administration for 15 min
[6] = single iv 6.0 mg/kg, After administration 5 min
[7] = single iv 6.0 mg/kg, After administration 15 min
[8] = single iv 6.0 mg/kg, Before administration
[9] = single iv 6.0 mg/kg, Administration 5 min
[10] = single iv 6.0 mg/kg, Administration 15 min
[11] = iv 0.08 + 0.325 (mg/kg + mg/kg/h)
[12] = iv 0.17 + 0.65 (mg/kg + mg/kg/h)
[13] = iv 0.35 + 1.3 (mg/kg + mg/kg/h)
[14] = single iv 3.0 mg/kg, Administration for 5 min
[15] = single iv 3.0 mg/kg, Administration for 15 min
[16] = single iv 12.0 mg/kg, Administration for 5 min
[17] = single iv 12.0 mg/kg, Administration for 15 min
[18] = single iv 3.0 mg/kg, Before administration
[19] = single iv 12.0 mg/kg, Before administration
[20] = single iv 3.0 mg/kg, Administration 5 min
[21] = single iv 3.0 mg/kg, Administration 15 min
[22] = single iv 12.0 mg/kg, Administration 5 min
[23] = single iv 12.0 mg/kg, Administration 15 min
[24] = iv 0.125 + 0.375 (mg/kg + mg/kg/h)
[25] = iv 0.25 + 0.75 (mg/kg + mg/kg/h)

Bivalirudin: Bivalirudin for Injection, Xi'an Xintong Pharmaceutical Research Co., Ltd.; positive control thrombin inhibitor
inhibitory rate of platelet aggregation (platelet aggregation; [4]): 5.2 ± 5.8%
inhibitory rate of platelet aggregation (platelet aggregation; [5]): 4.6 ± 6.0%
ACT (whole blood coagulation; [4]): 443.8 ± 35.3 s
ACT (whole blood coagulation; [5]): 375.0 ± 24.1*^ s
ACT fold of prolongation (whole blood coagulation; [6]): 1.5 ± 0.3
ACT fold of prolongation (whole blood coagulation; [7]): 1.3 ± 0.4
ACT (whole blood coagulation; [8]): 305.6 ± 24.0 s
PT fold of prolongation [1, 9]: 3.0 ± 0.5
PT fold of prolongation [1, 10]: 1.6 ± 0.2
PT [1, 4]: 18.8 ± 1.1 S
PT [1, 5]: 10.2 ± 0.7 S
PT [1, 8]: 6.4 ± 0.2 S
APTT fold of prolongation [2, 9]: 2.4 ± 0.3
APTT fold of prolongation [2, 10]: 1.4 ± 0.3
APTT [2, 4]: 50.4 ± 3.6 s
APTT [2, 5]: 30.9 ± 2.7 s
APTT [2, 8]: 21.6 ± 1.0 s
Common carotid arterial thrombosis Fold of prolongation [3, 11]: 1.79 ± 0.06
Common carotid arterial thrombosis OT [3, 11]: 44.75 ± 1.53 min
Common carotid arterial thrombosis Fold of prolongation [3, 12]: 2.24 ± 0.24
Common carotid arterial thrombosis OT [3, 12]: 56.00 ± 6.03 min
Common carotid arterial thrombosis Fold of prolongation [3, 13]: 2.23 ± 0.33
Common carotid arterial thrombosis OT [3, 13]: 55.63 ± 8.21 min
Common carotid arterial thrombosis Fold of prolongation ([3]; iv 0.5 + 2 (mg/kg + mg/kg/h)): 2.32 ± 0.23
Common carotid arterial thrombosis OT ([3]; iv 0.5 + 2 (mg/kg + mg/kg/h)): 58.00 ± 5.77 min

D-Phe Pro Arg Pro Gly Gly Gly Gly Asn Gly Asp Phe Glu Glu Ile Pro Glu Glu Tyr Leu Glu Ala Ala Ala Lys Cys Har Gly Asp Trp Pro Cys [Polypeptide 2]
inhibitory rate of platelet aggregation (platelet aggregation; [14]): 17.2 ± 6.7%
inhibitory rate of platelet aggregation (platelet aggregation; [15]): 6.3 ± 7.0%
inhibitory rate of platelet aggregation (platelet aggregation; [4]): 47.5 ± 5.8*^#¥& %
inhibitory rate of platelet aggregation (platelet aggregation; [5]): 15.4 ± 6.0%
inhibitory rate of platelet aggregation (platelet aggregation; [16]): 72.5 ± 6.2*#^¥&@ %
inhibitory rate of platelet aggregation (platelet aggregation; [17]): 46.0 ± 6.5*^#¥&@ %
ACT (whole blood coagulation; [14]): 352.5 ± 40.7^¥ s
ACT (whole blood coagulation; [15]): 337.5 ± 27.8*^¥ s
ACT fold of prolongation (whole blood coagulation; single iv 3.0 mg/kg, After administration 5 min): 1.0 ± 0.2
ACT fold of prolongation (whole blood coagulation; single iv 3.0 mg/kg, After administration 15 min): 1.0 ± 0.1
ACT (whole blood coagulation; [18]): 357.5 ± 27.7 s
ACT (whole blood coagulation; [4]): 356.3 ± 35.3^¥ s
ACT (whole blood coagulation; [5]): 324.4 ± 24.1*^¥ s
ACT fold of prolongation (whole blood coagulation; [6]): 1.7 ± 0.7
ACT fold of prolongation (whole blood coagulation; [7]): 1.6 ± 0.9
ACT (whole blood coagulation; [8]): 232.5 ± 24.0 s
ACT (whole blood coagulation; [16]): 505.6 ± 35.3*^¥&@ s
ACT (whole blood coagulation; [17]): 418.1 ± 24.1*^¥ s
ACT fold of prolongation (whole blood coagulation; single iv 12.0 mg/kg, After administration 5 min): 1.7 ± 0.6
ACT fold of prolongation (whole blood coagulation; single iv 12.0 mg/kg, After administration 15 min): 1.4 ± 0.3
ACT (whole blood coagulation; [19]): 315.0 ± 24.0 s
PT fold of prolongation [1, 20]: 1.5 ± 0.4
PT fold of prolongation [1, 21]: 1.2 ± 0.2
PT [1, 14]: 8.9 ± 1.2 S
PT [1, 15]: 7.0 ± 0.8 S
PT [1, 18]: 6.0 ± 0.3 S
PT fold of prolongation [1, 9]: 2.0 ± 0.4
PT fold of prolongation [1, 10]: 1.4 ± 0.3
PT [1, 4]: 12.9 ± 1.1*^#¥ S
PT [1, 5]: 8.9 ± 0.7 S
PT [1, 8]: 6.3 ± 0.2 S
PT fold of prolongation [1, 22]: 3.0 ± 0.8
PT fold of prolongation [1, 23]: 2.0 ± 0.6
PT [1, 16]: 19.2 ± 1.1 *^¥& S
PT [1, 17]: 12.5 ± 0.7 *^¥&@ S
PT [1, 19]: 6.5 ± 0.2 S
APTT fold of prolongation [2, 20]: 1.2 ± 0.2
APTT fold of prolongation [2, 21]: 1.0 ± 0.1
APTT [2, 14]: 24.4 ± 4.2*^¥ s
APTT [2, 15]: 20.0 ± 3.1 s
APTT [2, 18]: 20.6 ± 1.2 s
APTT fold of prolongation [2, 9]: 2.1 ± 0.6
APTT fold of prolongation [2, 10]: 1.5 ± 0.4
APTT [2, 4]: 50.5 ± 3.6*^& s
APTT [2, 5]: 34.9 ± 2.7*^& s
APTT [2, 8]: 24.1 ± 1.0 s
APTT fold of prolongation [2, 22]: 2.3 ± 0.6
APTT fold of prolongation [2, 23]: 1.6 ± 0.5
APTT [2, 16]: 54.4 ± 3.6*^& s
APTT [2, 17]: 37.0 ± 2.7*^& s
APTT [2, 19]: 23.3 ± 1.0 s
Common carotid arterial thrombosis OT ([3]; iv 0.041 + 0.125 (mg/kg + mg/kg/h)): 20.20 ± 10.00 min
Common carotid arterial thrombosis Fold of prolongation [3, 24]: 27.99
Common carotid arterial thrombosis OT [3, 24]: 16.23 ± 6.76 min
Common carotid arterial thrombosis Fold of prolongation [3, 25]: 36.85
Common carotid arterial thrombosis OT [3, 25]: 14.23 ± 4.82 min
Common carotid arterial thrombosis OT ([3]; iv 0.5 + 1.25 (mg/kg + mg/kg/h)): 9.25 ± 4.86 min
Common carotid arterial thrombosis Fold of prolongation ([3]; iv 1 + 2.5 (mg/kg + mg/kg/h)): 56.03
Common carotid arterial thrombosis OT ([3]; iv 1 + 2.5 (mg/kg + mg/kg/h)): 9.91 ± 6.20 min
Common carotid arterial thrombosis OT ([3]; iv 1.5 + 3.75 (mg/kg + mg/kg/h)): 7.13 ± 3.46 min

From US11643439B2, “Multi-target compound with anticoagulation and antiplatelet activity, preparation method therefor, and use thereof” (SHAANXI MICOT TECHNOLOGY LIMITED COMPANY, priority 2015, dated 2023)
